From US20130045983A1, “HSP90 INHIBITORS FOR THERAPEUTIC TREATMENT” (Novartis AG, priority 2008, published 2013)

Legend:
Format in all cases: cell-based
[1] = test system: LXFA 289; test: Clonogenic assay, LXFA 289; settings: Homo sapiens, Lung, non-small cell, Adenocarcinoma, soft agar, read-out: IC50 (colony formation)
Protocol: (§1) The anticancer activity of (R)-2-amino-7-[2-(6-methoxy-pyridin-2-yl)-phenyl]-4-methyl-7,8-dihydro-6H-pyrido[4,3-d]pyrimidin-5-one is evaluated in 30 human tumor xenografts in vitro using a clonogenic assay. In this assay, human cells derived from cancer patients are evaluated for the capacity of (R)-2-amino-7-[2-(6-methoxy-pyridin-2-yl)-phenyl]-4-methyl-7,8-dihydro-6H-pyrido[4,3-d]pyrimidin-5-one to inhibit the formation of 3 dimensional colonies. […] The tumor xenografts which have never been cultured in cell culture plastic dishes are isolated from nude mice. Tumor cell suspensions are prepared and incubated in 24 well plates containing layers of soft agar. Under these conditions a special subpopulation of cells selectively grows to colonies. (R)-2-amino-7-[2-(6-methoxy-pyridin-2-yl)-phenyl]-4-methyl-7,8-dihydro-6H-pyrido[4,3-d]pyrimidin-5one is tested in 6 concentrations up to 1000 nM. The tumor test panel comprises 1 to 10 models of 12 different human tumor types, which were bladder cancer, colon, gastric, non small cell lung (adeno, squamous cell, and large cell), small cell lung, mammary, ovary, and prostate cancer, as well as leukemia, lymphoma, melanoma, and sarcoma. Antitumor effects are recorded as inhibition of colony formation in relation to untreated controls. […]

[2] = test system: CXF 1103; test: Clonogenic assay, CXF 1103; settings: Homo sapiens, CXF1103, Colon, Adenocarcinoma, soft agar, read-out: IC50 (colony formation)
Protocol: as §1

[3] = test system: A549; test: Cell proliferation assay, A549 (lung); settings: Homo sapiens, 72 hours in presence of compound
Protocol: (§2) Seventeen cancer derived cell lines are used (GTL-16, N87, H1975, A549, H69, A2780, PC3, BT474, SKBR3, MCF-7, A375, MV4;11, K562, KM12L4A, H929, OPM-2 and KMS-11) to test the effect of (R)-2-amino-7-[2-(6-methoxy-pyridin-2-yl)-phenyl]-4-methyl-7,8-dihydro-6H-pyrido[4,3-d]pyrimidin-5-one. These cell lines cover the following 9 tumor types: Gastric, Lung, Ovarian, Prostate, Breast, Melanoma, Leukemia, Colon and Multiple myeloma. After division and medium change, cells from stock culture are seeded on cell plates and cultured for about 18 hours to allow cell growth and attachment before starting the assay. Then on the first day of the assay, (R)-2-amino-7-[2-(6-methoxy-pyridin-2-yl)-phenyl]-4-methyl-7,8-dihydro-6H-pyrido[4,3-d]pyrimidin-5-one is added to the medium at various concentrations. Cells are cultured up to 72 or 96 hours and cell proliferation is determined using commercially available cell proliferation kits.
(§3) Table 1 relates to the concentration in nM of (R)-2-amino-7-[2-(6-methoxy-pyridin-2-yl)-phenyl]-4-methyl-7,8-dihydro-6H-pyrido[4,3-d]pyrimidin-5-one which inhibits cell proliferation by 50% (IC50). […]

[4] = test system: OVXF 1353; test: Clonogenic assay, OVXF 1353; settings: Homo sapiens, Ovary, Adenocarcinoma, soft agar, read-out: IC50 (colony formation)
Protocol: as §1

[5] = test system: PRXF 22RV1; test: Clonogenic assay, PRXF 22RV1; settings: Homo sapiens, Prostate carcinoma, soft agar, read-out: IC50 (colony formation)
Protocol: as §1

[6] = test system: A375m; test: Cell proliferation assay, A375m (melanoma); settings: 72 hours in presence of compound
Protocol: as §2, §3

[7] = test system: OVXF 899; test: Clonogenic assay, OVXF 899; settings: Homo sapiens, Ovary, Pap. serous adenocarcinoma, soft agar, read-out: IC50 (colony formation)
Protocol: as §1

[8] = test system: MAXF 713; test: Clonogenic assay, MAXF 713; settings: Homo sapiens, Breast, Adenocarcinoma, soft agar, read-out: IC50 (colony formation)
Protocol: as §1

[9] = test system: KMS-11; test: Cell proliferation assay, KMS-11 (multiple myeloma); settings: Homo sapiens, 72 hours in presence of compound
Protocol: as §2, §3

[10] = test system: LXFS 660; test: Clonogenic assay, LXFS 660; settings: Homo sapiens, Lung, small cell, Small cell lung carcinoma, soft agar, read-out: IC50 (colony formation)
Protocol: as §1

[11] = test system: MAXF 1322; test: Clonogenic assay, MAXF 1322; settings: Homo sapiens, Breast, Pap. adenocarcinoma, soft agar, read-out: IC50 (colony formation)
Protocol: as §1

[12] = test system: SXF 1301; test: Clonogenic assay, SXF 1301; settings: Homo sapiens, Sarcoma, Malignant rhabdomyosarcoma, soft agar, read-out: IC50 (colony formation)
Protocol: as §1

[13] = test system: MAXF 1384; test: Clonogenic assay, MAXF 1384; settings: Homo sapiens, Breast, Adenocarcinoma, soft agar, read-out: IC50 (colony formation)
Protocol: as §1

[14] = test system: H1975; test: Cell proliferation assay, H1975 (lung); settings: Homo sapiens, NCI-H1975, 72 hours in presence of compound
Protocol: as §2, §3

[15] = test system: H929; test: Cell proliferation assay, H929 (multiple myeloma); settings: Homo sapiens, NCI-H929, 72 hours in presence of compound
Protocol: as §2, §3

[16] = test system: LYXF U937; test: Clonogenic assay, LYXF U937; settings: Homo sapiens, U-937, Histiocytic lymphoma, soft agar, read-out: IC50 (colony formation)
Protocol: as §1

[17] = test system: LXFA 629; test: Clonogenic assay, LXFA 629; settings: Homo sapiens, Lung, non-small cell, Adenocarcinoma, soft agar, read-out: IC50 (colony formation)
Protocol: as §1

[18] = test system: PRXF PC3M; test: Clonogenic assay, PRXF PC3M; settings: Homo sapiens, PC-3M, Prostate, Adenocarcinoma, metastatic, soft agar, read-out: IC50 (colony formation)
Protocol: as §1

[19] = test system: LXFL 1647; test: Clonogenic assay, LXFL 1647; settings: Homo sapiens, Lung, non-small cell, Large cell lung carcinoma, soft agar, read-out: IC50 (colony formation)
Protocol: as §1

[20] = test system: MV4:11; test: Cell proliferation assay, MV4:11 (leukemia); settings: Homo sapiens, 72 hours in presence of compound
Protocol: as §2, §3

IC50 [1]: 639 nM
IC50 [2]: 27 nM
GI50 [3]: 16 nM
IC50 [4]: 53 nM
IC50 [5]: 23 nM
GI50 [6]: 36 nM
IC50 [7]: > 100 nM
IC50 [8]: > 1000 nM
GI50 [9]: 7 nM
IC50 [10]: 6 nM
IC50 [11]: 52 nM
IC50 [12]: 26 nM
IC50 [13]: 14 nM
GI50 [14]: 33 nM
GI50 [15]: 20 nM
IC50 [16]: 28 nM
IC50 [17]: 27 nM
IC50 [18]: 276 nM
IC50 [19]: 203 nM
GI50 [20]: 4 nM
SMILES: COc1cccc(-c2ccccc2[C@H]2Cc3nc(N)nc(C)c3C(=O)N2)n1 [(R)-2-amino-7-[2-(6-methoxy-pyridin-2-yl)-phenyl]-4-methyl-7,8-dihydro-6H-pyrido[4,3-d]pyrimidin-5-one]
